The results in this text go back to patent US20250313554A1, “PTPN2 INHIBITORS” (Ness Therapeutics, Inc., priority 2022, published 2025).

Like-named read-outs stand apart in the source and are kept apart here. A value given as a limit tells only on which side of the number the result lay.

The target in one data set is GST-tagged PTPN2 protein (Homo sapiens (Human), UniProt P17706). Kind of data set: Primary assay of PTPN2 enzymatic activity inhibition (DiFMUP fluorescence). In kind it is biochemical. The note with it: PTPN2 0.004 ng/μL, DiFUMP substrate 2 μM, 60 min at rt. On the procedure: Compound activity was determined using GST-tagged PTPN2 protein (Cat #31592, ActiveMotif) (SEQ ID NO: 1) in an in vitro enzymatic reaction. The enzymatic reaction was carried out in assay buffer (50 mM HEPES Na salt pH 7.2-7.4, 2 mM EDTA, 100 mM NaCl, 52 ng/μL BSA, and 6 mM DTT). The compounds were dispensed on a 384 well Diamond Well Plate (Axigen, Cat #P-384-120SQ-C-S) using the Biomek FX liquid handling system at 100× solutions of compounds in DMSO. 2×PTPN2 (final concentration 0.004 ng/μL) was prepared in 1× Assay buffer and 25 μL of mixture per well was added into Reaction plate (Optiplate, black, Perkin Elmer, Cat #6007270). Add 25 μL of 1× buffer to Ctrl- (Substrate w/o PTPN2) wells followed by centrifugation at 100 g for 1 min. Next step the Compounds were added to Reaction plate using Biomek station via following steps: 3 μl of 100× compounds (in DMSO) were mixed with 27 μL of Assay Buffer, then 5 μL of this mixture was added to Reaction plate with 25 μL of PTPN2 Mix. Plates were centrifuged for 1 min at 100 g and incubated for another 10 min at rt. Finally, 20 μL of 2.5× Substrate (DiFUMP, Invitrogen™ Cat #D6567) mix was added into appropriate wells of Reaction plate to the final concentration of 2 μM, plate was centrifuged at 100 g for 1 min followed by incubation at rt for 60 min, and the Fluorescence Intensity was measured using a Microplate Reader (ClarioStar Plus, excitation 360 nm, emission 450 nm). The % inhibition was then used to calculate the Ki values. The Ki values are shown in Table A, wherein “A” corresponds to Ki<1.0 nm, “B” corresponds to 1.0 nm≤Ki<5.0 nm, “C” corresponds to 5.0 nm≤Ki<10.0 nm, “D” corresponds to 10.0 nm≤Ki<50.0 nm, and “E” corresponds to 50.0 nm≤Ki<100.0 nm, and “F” corresponds to 100.0 nm≤Ki.

The test system of data set [1] is B16F10 mouse melanoma cells. The experiment in a line: Tumor cells B16F10 cellular growth IFNγ-induced inhibition assay (CellTiter-Glo). In kind it is cell-based. The note with it: for IC50: B16-F10, 72 h. On the procedure:
B16F10 mouse melanoma cells (ATCC Cat #CRL-6475) were seeded at a density of 500 cells per well in a 384-well clear bottom plate (Corning Cat #3712, Corning, N.Y.) in 40 μL total volume of DMEM+10% FBS (PanEco Cat #C420, Russia and Sigma Cat #F4135, St. Louis, MO). Cells were allowed to adhere overnight at 37° C., 5% CO2. On the following day, 250× solutions of compounds in DMSO (Sigma Cat #D2650) were prepared into Cmpnds plate (Diamond Well Plate, Axigen, Cat #P-384-120SQ-C-S) (final concentration of 1×) and DMSO only controls were included. Dilution Plate (Diamond Well Plate (Axigen, Cat #P-384-120SQ-C-S) was prepared by adding 49 μL of culture medium per well: half of the plate with culture medium only, half with culture medium+IFNγ (5 ng/ml). A 1 μL aliquot of 250× compounds (Cmpnds plate) was added to 49 μL of culture medium (Dilution plate), then a 10 μL aliquot of the mixture was transferred to Reaction plate with 40 μL of cells followed by centrifugation at 240 g for 1 min. After 3 days of incubation, 10 μL of CellTiter-Glo (Promega) was added to the cells, plates were centrifuged at 240 g for 1 min, and luminescence signal was measured. For each compound, the percent growth inhibition at every compound dose level was calculated relative to the “DMSO/with IFNγ” control and used to determine the IC50.
In general terms: In ATP-based viability assays light output follows the ATP content of the culture.

Data set [2] in a line: Pharmacokinetic (PK) study in mice, oral bioavailability. In kind it is in vivo, Male CD-1 mice. The note with it: 10 mg/kg PO vs 2 mg/kg IV, 10% Ethanol, 30% PEG-400, 60% Phosal-50PG, form Suspension. On the procedure: Pharmacokinetic (PK) study in mice: Male CD-1 mice obtained from Charles River GmbH (Sulzfeld, Germany) with body weight ranging between 30 g to 40 g were used in the PK studies. Group of 12 mice were given a 2 mg/kg intravenous bolus (IV) dose of test article as a solution in 20% HP-beta-CD, and another group of 9 mice were given a 10 mg/kg oral (PO) dose of test article as a solution or suspension in [10% ethanol, 30% PEG-400 and 60% Phosal-50PG]. Blood samples (˜200 μL per time point) were collected twice from each animal—from orbital sinus and by cardiopuncture at 0.083, 0.25, 0.5, 1, 2, 4, 8 and 24 hours after IV administration, and at 0.5, 1, 2, 4, 8 and 24 hours after PO administration, 3 mice/time point. Blood samples were collected in tubes with Na-EDTA 0.5 M solution (1:10) and centrifuged for 10 min at 10,000 rpm at 2 to 8° C. to harvest plasma. Plasma samples were stored at −80° C. until LC/MS/MS analysis. Concentration in each plasma sample was determined by a non-validated LC/MS/MS. Data is acquired using multiple reaction monitoring (MRM) with specific transitions monitored for each compound. Pharmacokinetic Analysis: PK parameters were calculated by non-compartmental methods as described in Gibaldi and Perrier (Gibaldi and Perrier, 1982) using Phoenix® WinNonlin® version 6.3 (Certara L.P.). Following PO administration, percent bioavailability (Fabs) was determined by dividing the dose normalized mean area under the plasma concentration-time curve, extrapolated to the last time point (AUClast) obtained following PO dose by the mean dose normalized AUC of the animals dosed by IV injection. All PK parameters are presented as mean±standard deviation (SD). PK studies were conducted in mice for exemplary compounds of Formula (I). The percent bioavailability (Fabs) values determined are listed in Table C for certain compounds, together with the dosage, vehicle and form used in the studies.

Where [3] appears, read: B16F10, no IFNγ, 3 days of incubation, read-out: IC50 no IFNγ.
[4] abbreviates: B16F10, with IFNγ, 3 days of incubation, read-out: IC50 + IFNγ.
The mark [5] stands for this setting: B16-F10, B16F10, 100 μM compound, no IFNγ, read-out: % Growth Inhibition at 100 μM no IFNγ.
The mark [6] stands for this setting: B16-F10, B16F10, 100 μM compound, with IFNγ, read-out: % Growth Inhibition at 100 μM + IFNγ.

Sequence of GST-tagged PTPN2 protein (P17706 whole entry): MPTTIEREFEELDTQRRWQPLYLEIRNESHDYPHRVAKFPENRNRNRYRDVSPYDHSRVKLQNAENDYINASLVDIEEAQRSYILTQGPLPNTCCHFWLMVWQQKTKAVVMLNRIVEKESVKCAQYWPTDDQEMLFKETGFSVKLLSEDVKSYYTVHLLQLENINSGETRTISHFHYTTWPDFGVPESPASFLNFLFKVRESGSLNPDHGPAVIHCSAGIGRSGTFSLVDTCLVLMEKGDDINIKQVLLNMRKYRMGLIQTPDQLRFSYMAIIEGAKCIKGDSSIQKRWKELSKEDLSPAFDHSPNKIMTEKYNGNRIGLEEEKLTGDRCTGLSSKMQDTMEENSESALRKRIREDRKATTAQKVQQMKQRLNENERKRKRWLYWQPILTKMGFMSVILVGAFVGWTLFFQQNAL

For orientation: Ki means a dissociation constant, usually derived from enzyme kinetics or from competition with a known ligand. Higher therefore signals lower affinity. What is called IC50 is the concentration needed to halve the response being measured. Usually inhibition stands for the share of the control response that was lost under treatment. `CC(C)Cc1c(O)nc(Nc2cc(O)c(N3CC(=O)NS3(=O)=O)c(F)c2)nc1O` [Compound 13, 5-[4-[(4,6-dihydroxy-5-isobutyl-pyrimidin-2-yl)amino]-2-fluoro-6-hydroxy-phenyl]-1,1-dioxo-1,2,5-thiadiazolidin-3-one] gave a Ki at GST-tagged PTPN2 protein of 0.001 to 0.005 µM. The IC50 is over 100 µM in data set [1] (setting [3]) and 10 to 50 µM in data set [1] (setting [4]). In addition, the inhibition at 100 µM in data set [1] (setting [5]) fell in the range of 10 to 50%; in data set [1] (setting [6]), 50 to 75%.
In turn, `CC(C)Cc1c(O)nc(Nc2cc(O)c(N3CC(=O)NS3(=O)=O)c(F)c2)nc1Cl` [Compound 42, 5-[4-[(4-chloro-6-hydroxy-5-isobutyl-pyrimidin-2-yl)amino]-2-fluoro-6-hydroxy-phenyl]-1,1-dioxo-1,2,5-thiadiazolidin-3-one] had a Ki at GST-tagged PTPN2 protein of under 0.001 µM. The half-maximal inhibitory concentration (IC50) is over 100 µM in data set [1] (setting [3]) and 10 to 50 µM in data set [1] (setting [4]). For the same compound, the inhibition at 100 µM was 10 to 50% in data set [1] (setting [5]) and 75 to 100% in data set [1] (setting [6]).
The compound `Cc1cc(O)nc(Nc2cc(O)c(N3CC(=O)NS3(=O)=O)c(F)c2)n1` [Compound 10, 5-[2-fluoro-6-hydroxy-4-[(4-hydroxy-6-methyl-pyrimidin-2-yl)amino]phenyl]-1,1-dioxo-1,2,5-thiadiazolidin-3-one] gave a Ki at GST-tagged PTPN2 protein of 0.001 to 0.005 µM. For the same compound, the IC50 was over 100 µM in data set [1] (setting [3]) and under 5 µM in data set [1] (setting [4]). Also, the inhibition at 100 µM lay within 10 to 50% in data set [1] (setting [5]) and 75 to 100% in data set [1] (setting [6]). For the same compound, in data set [2], the “Fabs, %” value was found to be 2.7%.
For `Cc1cnc(Nc2cc(O)c(N3CC(=O)NS3(=O)=O)c(F)c2)nc1O` [Compound 6, 5-[2-fluoro-6-hydroxy-4-[(4-hydroxy-5-methyl-pyrimidin-2-yl)amino]phenyl]-1,1-dioxo-1,2,5-thiadiazolidin-3-one], the Ki on GST-tagged PTPN2 protein is under 0.001 µM. Further, the IC50 in data set [1] (setting [3]) was over 100 µM; in data set [1] (setting [4]), 50 to 100 µM. The figures for the inhibition at 100 µM in data set [1] (setting [5]) and in data set [1] (setting [6]) were under 10% and 50 to 75%, respectively.
On GST-tagged PTPN2 protein, `O=C1CN(c2c(O)cc(Nc3nccc(O)n3)cc2F)S(=O)(=O)N1` [Compound 7, 5-[2-fluoro-6-hydroxy-4-[(4-hydroxypyrimidin-2-yl)amino]phenyl]-1,1-dioxo-1,2,5-thiadiazolidin-3-one] registered a Ki of 0.001 to 0.005 µM. Besides, the IC50 was over 100 µM in data set [1] (setting [3]) and 5 to 10 µM in data set [1] (setting [4]). Also, the results for the inhibition at 100 µM in data set [1] (setting [5]) and in data set [1] (setting [6]) were 10 to 50% and 75 to 100%, respectively. Moreover, the “Fabs, %” value in data set [2] is 6.1%.
As to `CCCc1c(C)nc(Nc2cc(O)c(N3CC(=O)NS3(=O)=O)c(F)c2)nc1O` [Compound 21, 5-[2-fluoro-6-hydroxy-4-[(4-hydroxy-6-methyl-5-propyl-pyrimidin-2-yl)amino]phenyl]-1,1-dioxo-1,2,5-thiadiazolidin-3-one], the Ki at GST-tagged PTPN2 protein was in the range of 0.001 to 0.005 µM. Besides, the IC50 in data set [1] (setting [3]) was over 100 µM; in data set [1] (setting [4]), 10 to 50 µM. Besides, the inhibition at 100 µM in data set [1] (setting [5]) was 10 to 50%; in data set [1] (setting [6]) it was 50 to 75%.
For `O=C1CN(c2c(O)cc(Nc3nc(O)c4c(n3)CCCC4)cc2F)S(=O)(=O)N1` [Compound 39, 5-[2-fluoro-6-hydroxy-4-[(4-hydroxy-5,6,7,8-tetrahydroquinazolin-2-yl)amino]phenyl]-1,1-dioxo-1,2,5-thiadiazolidin-3-one] the same measures were under 0.001 µM, over 100 µM, 10 to 50 µM, 10 to 50% and 50 to 75%.
`CC(C)Cc1cnc(Nc2cc(O)c(N3CC(=O)NS3(=O)=O)c(F)c2)nc1O` [Compound 12, 5-[2-fluoro-6-hydroxy-4-[(4-hydroxy-5-isobutyl-pyrimidin-2-yl)amino]phenyl]-1,1-dioxo-1,2,5-thiadiazolidin-3-one] showed a Ki at GST-tagged PTPN2 protein of under 0.001 µM. Besides, the values for the IC50 in data set [1] (setting [3]) and in data set [1] (setting [4]) were over 100 µM and 10 to 50 µM, respectively. The inhibition at 100 µM in data set [1] (setting [5]) lay in the range of 10 to 50%; in data set [1] (setting [6]), 50 to 75%.
For `O=C1CN(c2c(O)cc(Nc3ncc(Cl)cn3)cc2F)S(=O)(=O)N1` [Compound 5, 5-[4-[(5-chloropyrimidin-2-yl)amino]-2-fluoro-6-hydroxy-phenyl]-1,1-dioxo-1,2,5-thiadiazolidin-3-one] the same measures were 0.05 to 0.1 µM, over 100 µM, over 100 µM, 10 to 50% and 10 to 50%.
With `Cc1ccnc(Nc2cc(O)c(N3CC(=O)NS3(=O)=O)c(F)c2)n1` [Compound 4, 5-[2-fluoro-6-hydroxy-4-[(4-methylpyrimidin-2-yl)amino]phenyl]-1,1-dioxo-1,2,5-thiadiazolidin-3-one], the inhibitory constant (Ki) at GST-tagged PTPN2 protein was at least 0.1 µM. The IC50 in data set [1] (read-out: IC50 + IFNγ (μM)) and in data set [1] (read-out: IC50 no IFNγ (μM)) was over 100 µM in each case. The inhibition at 100 µM in data set [1] (B16-F10, read-out: % Growth Inhibition at 100 μM + IFNγ) was 10 to 50%; in data set [1] (B16-F10, read-out: % Growth Inhibition at 100 μM no IFNγ), 10 to 50%.
`O=C1CN(c2c(O)cc(Nc3nc(O)c4ccccc4n3)cc2F)S(=O)(=O)N1` [Compound 8, 5-[2-fluoro-6-hydroxy-4-[(4-hydroxyquinazolin-2-yl)amino]phenyl]-1,1-dioxo-1,2,5-thiadiazolidin-3-one]: the Ki at GST-tagged PTPN2 protein was under 0.001 µM. Also, the IC50 is over 100 µM in data set [1] (setting [3]) and 10 to 50 µM in data set [1] (setting [4]). Moreover, the results for the inhibition at 100 µM in data set [1] (setting [5]) and in data set [1] (setting [6]) were 10 to 50% and 50 to 75%, respectively.
As for `O=C1CN(c2c(O)cc(NC3=NCCCN3)cc2F)S(=O)(=O)N1` [Compound 2, 5-[2-fluoro-6-hydroxy-4-(1,4,5,6-tetrahydropyrimidin-2-ylamino)phenyl]-1,1-dioxo-1,2,5-thiadiazolidin-3-one], on GST-tagged PTPN2 protein, the Ki lay within 0.005 to 0.01 µM. The IC50 in data set [1] (setting [3]) was over 100 µM; in data set [1] (setting [4]) it was under 5 µM. For the same compound, the inhibition at 100 µM is 10 to 50% in data set [1] (setting [5]) and 75 to 100% in data set [1] (setting [6]).
